Assay results from EP3831859A1, “COPOLYMER FOR ELECTRODE BINDER AND LITHIUM ION SECONDARY BATTERY” (SHOWA DENKO K.K., priority 2019, dated 2021).

Key:
[1] = n-octanol/water partition coefficient LogP (JIS Z 7260-117); conditions: for chromatographic logP: n-octanol/water
[2] = LogP, n-octanol/water partition coefficient
[3] = n-octanol/water partition coefficient

Question: Which chromatographic logP [1] does the source give for `C=CC(=O)OCC(CC)CCCC` (stereo not drawn) [2-ethylhexyl acrylate] here?
Answer: 4.2

Question: Which chromatographic logP (physchem; LogP) does the source give for `C=C(C)C(=O)OCC(CC)CCCC` (stereo not drawn) [2-ethylhexyl methacrylate] here?
Answer: 4.62

Question: Which chromatographic logP [1] does the source give for `C=CC(=O)OCCO` [2-hydroxyethyl acrylate] here?
Answer: 0.01

Question: For `C=C(C)C(=O)OCCO` [2-hydroxyethyl methacrylate], which chromatographic logP [1] is on record?
Answer: 0.43

Question: For `C=CC(=O)OCC(C)O` (stereo not drawn) [2-hydroxypropyl acrylate], which chromatographic logP [1, 2] is on record?
Answer: 0.36

Question: Which chromatographic logP [1, 2] does the source give for `C=C(C)C(=O)OCC(C)O` (stereo not drawn) [2-hydroxypropyl methacrylate] here?
Answer: 0.78

Question: For `C=CC(=O)OCCCCO` [4-hydroxybutyl acrylate], which chromatographic logP [1] is on record?
Answer: 0.59

Question: Which chromatographic logP (physchem; LogP) does the source give for `C=CC(=O)N(C)C` [N, N-dimethylacrylamide] here?
Answer: -0.14

Question: With `C=C(C)C(=O)NCC(C)O` (stereo not drawn) [N-(2-Hydroxypropyl) methacrylamide] as the compound, how does the chromatographic logP [1, 2] read?
Answer: 0.95

Question: With `C=CC(=O)NCC(C)O` (stereo not drawn) [N-(2-hydroxypropyl) acrylamide] as the compound, how does the chromatographic logP [1, 2] read?
Answer: -1.37

Question: Which chromatographic logP [1, 2] does the source give for `C=CC(=O)NCCN(C)C` [N-(dimethylaminoethyl) acrylamide] here?
Answer: -0.28

Question: With `C=CC(=O)NCN(C)C` [N-(dimethylaminomethyl) acrylamide] as the compound, how does the chromatographic logP [1, 2] read?
Answer: -0.47

Question: With `C=CC(=O)NCCCN(C)C` [N-(dimethylaminopropyl) acrylamide] as the compound, how does the chromatographic logP [1, 2] read?
Answer: -0.24

Question: Which chromatographic logP (physchem; LogP) does the source give for `C=CC(=O)NCC` [N-ethylacrylamide] here?
Answer: -0.08

Question: With `C=C(C)C(=O)NCC` [N-ethylmethacrylamide] as the compound, how does the chromatographic logP [1, 2] read?
Answer: 0.34

Question: Which chromatographic logP [1] does the source give for `C=C(C)C(=O)NCCO` [N-hydroxyethylmethacrylamide] here?
Answer: -0.95

Question: Which chromatographic logP (physchem; LogP) does the source give for `C=CC(=O)NCO` [N-hydroxymethylacrylamide] here?
Answer: -1.38

Question: With `C=C(C)C(=O)NCO` [N-hydroxymethylmethacrylamide] as the compound, how does the chromatographic logP [1] read?
Answer: -0.96

Question: For `C=C(C)C(=O)NC(C)C` [N-isopropylmethacrylamide], which chromatographic logP [1, 2] is on record?
Answer: 0.7

Question: For `C=CC(=O)NC` [N-methylacrylamide], which chromatographic logP [1] is on record?
Answer: -0.59

Question: With `C=C(C)C(=O)NC` [N-methylmethacrylamide] as the compound, how does the chromatographic logP [1, 2] read?
Answer: -0.17

Question: Which chromatographic logP [1, 2] does the source give for `C=CC(=O)NCCC` [N-propylacrylamide] here?
Answer: 0.43

Question: For `C=CC(N)=O` [acrylamide], which chromatographic logP [1] is on record?
Answer: -0.56

Question: For `C/C=C/C(=O)O` [crotonic acid], which chromatographic logP [1, 2] is on record?
Answer: 0.66

Question: For `C=CC(=O)OC1CCCCC1` [cyclohexyl acrylate], which chromatographic logP [1] is on record?
Answer: 2.76

Question: Which chromatographic logP [1] does the source give for `C=C(C)C(=O)OC1CCCCC1` [cyclohexyl methacrylate] here?
Answer: 3.18

Question: For `C=CC(=O)NC(C)(C)CC(C)=O` [diacetone acrylamide], which chromatographic logP (physchem) is on record?
Answer: 0.04

Question: For `C=CC(=O)OCC` [ethyl acrylate], which chromatographic logP [1, 2] is on record?
Answer: 1.32

Question: For `O=C(O)/C=C/C(=O)O` [fumaric acid], which chromatographic logP [1, 2] is on record?
Answer: -0.45

Question: Which LogP [1, 3] does the source give for `C=CC(=O)OC1CC2CCC1(C)C2(C)C` (stereo not drawn) [isoboronyl acrylate] here?
Answer: 4.03

Question: For `C=C(C)C(=O)OC1CC2CCC1(C)C2(C)C` (stereo not drawn) [isoboronyl methacrylate], which LogP [1, 3] is on record?
Answer: 4.45

Question: With `C=CC(=O)OCC(C)C` [isobutyl acrylate] as the compound, how does the chromatographic logP [1] read?
Answer: 2.16

Question: With `C=C(C)C(=O)OCC(C)C` [isobutyl methacrylate] as the compound, how does the chromatographic logP [1, 2] read?
Answer: 2.58

Question: For `C=C(C)C(=O)OC(C)C` [isopropyl methacrylate], which chromatographic logP [1, 2] is on record?
Answer: 2.07

Question: Which chromatographic logP [1, 2] does the source give for `C=C(CC(=O)O)C(=O)O` [itaconic acid] here?
Answer: -0.08

Question: With `O=C(O)/C=C\C(=O)O` [maleic acid] as the compound, how does the chromatographic logP [1, 2] read?
Answer: -0.45

Question: For `C=C(C)C(N)=O` [methacrylamide], which chromatographic logP [1, 2] is on record?
Answer: -0.14

Question: For `C=CC(=O)OC` [methyl acrylate], which chromatographic logP [1] is on record?
Answer: 0.8

Question: For `C=C(C)C(=O)OC` [methyl methacrylate], which chromatographic logP [1] is on record?
Answer: 1.38

Question: Which results are given for `C=CC(=O)OCCCC` [n-butyl acrylate]?
Answer: chromatographic logP [1]: 2.32; LogP [1, 3]: Acrylic acid-n butyl (E-1) LogP = 2.32

Question: With `C=C(C)C(=O)OCCCC` [n-butyl methacrylate] as the compound, how does the chromatographic logP [1] read?
Answer: 2.74

Question: For `C=C(C)C(=O)OCCC` [n-propyl methacrylate], which chromatographic logP [1, 2] is on record?
Answer: 2.23

Question: Which chromatographic logP [1, 2] does the source give for `C=CC(=O)OCCCCCCCCCCCCCCCCCC` [stearyl acrylate] here?
Answer: 9.45

Question: Which chromatographic logP [1] does the source give for `C=C(C)C(=O)OCCCCCCCCCCCCCCCCCC` [stearyl methacrylate] here?
Answer: 9.87

Question: Which chromatographic logP [1] does the source give for `C=CC(=O)OC(C)(C)C` [tert-butyl acrylate] here?
Answer: 2.06

Question: With `C=C(C)C(=O)OC(C)(C)C` [tert-butyl methacrylate] as the compound, how does the chromatographic logP [1, 2] read?
Answer: 2.48

Question: For `C=CC(=O)OCCC(=O)O` [β-carboxyethyl acrylate], which chromatographic logP [1, 2] is on record?
Answer: 0.31
